# Several values for one entry are separate records, joined by “and”; a condition that tells them apart may be missing. Equal values may be shown once.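 Following 48 hours of exposure in 96-well plates, responses at five concentrations were used to interpolate endpoints linearly. GI50 is the concentration that inhibits growth by half. The concentration for full growth arrest is given as TGI.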
# How the values were obtained:
# Test in all cases: inhibition of tumour cell growth, NCI panel, 48 h
# HCT-15 colon = tested on: HCT-15 colon
# HT29 colon = tested on: HT29 colon
# COLO 205 colon = tested on: COLO 205 colon
# M14 melanoma = tested on: M14 melanoma
# NCI-H226 lung = tested on: NCI-H226 lung
# OVCAR-5 ovarian = tested on: OVCAR-5 ovarian
# RXF 393 renal = tested on: RXF 393 renal
# OVCAR-4 ovarian = tested on: OVCAR-4 ovarian
# SNB-75 CNS = tested on: SNB-75 CNS
# IGROV1 ovarian = tested on: IGROV1 ovarian
SMILES,GI50 (HCT-15 colon) [µM],TGI (HCT-15 colon) [µM],GI50 (HT29 colon) [µM],TGI (HT29 colon),GI50 (COLO 205 colon) [µM],TGI (COLO 205 colon),GI50 (M14 melanoma) [µM],TGI (M14 melanoma),GI50 (NCI-H226 lung) [µM],TGI (NCI-H226 lung),GI50 (OVCAR-5 ovarian) [µM],TGI (OVCAR-5 ovarian),GI50 (RXF 393 renal) [µM],TGI (RXF 393 renal) [µM],GI50 (OVCAR-4 ovarian) [µM],TGI (OVCAR-4 ovarian),GI50 (SNB-75 CNS) [µM],TGI (SNB-75 CNS),GI50 (IGROV1 ovarian) [µM],TGI (IGROV1 ovarian)
COc1cc(C)c(NC(=O)CN(C)C)cc1Nc1nc(Nc2cccc(F)c2C(N)=O)c2cc[nH]c2n1,1.98,6.9,0.00981,0.725 µM,0.014,0.552 µM,1.1,5.98 µM,2.6,7.24 µM,0.0336,3.63 µM,1.42,5.9,2.92,7.43 µM,3.37,6.92 µM,1.91,5.81 µM
CCN1CCN(c2ccc(Nc3ncc4ccc5ncn(C(C)C)c5c4n3)nc2)CC1,0.0636,1.16,0.0489,15.5 µM,0.0852,0.342 µM,0.124,1.34 µM,0.148,2.67 µM,0.037,21.5 µM,0.0765,0.248,0.273,0.885 µM,0.14,0.415 µM,0.0347,1.6 µM
Cc1nn(C)c2cc(N(C)c3ccnc(Nc4cccc(S(N)(=O)=O)c4)n3)ccc12,9.02,> 25,6.1,> 25 µM,> 17.3,> 25 µM,8.11,> 25 µM,5.16,> 21.3 µM,5.83,> 25 µM,5.98,> 19.2,6.15,> 25 µM,5.89,> 23.7 µM,5.98,> 18.9 µM
O=S(=O)(CCCCl)SCCCCl,–,54.7,–,62.5 µM,–,> 69.2 µM,–,47.3 µM,–,> 100 µM,–,> 94.3 µM,–,57.8,–,24.2 µM,–,> 94 µM,–,> 67.5 µM
C=C1C(=O)O[C@H]2[C@H]1CC/C(COC(=O)NCc1cc(OC)cc(OC)c1)=C\CC[C@@]1(C)O[C@@H]21,0.77,2.25,1.2,2.96 µM,1.35,3.09 µM,1.64,3.87 µM,2.02,5.49 µM,1.82,4.45 µM,0.687,2.07,1.7,5.24 µM,1.99,12.7 µM,2.12,7.66 µM
Cn1c(=N)n[n+]([O-])c2ccccc21,4.72,10.8,–,4.88 µM and 15.1 µM,–,5.3 µM and 5.52 µM,–,3.7 µM and 3.76 µM,–,24.8 µM and 32.4 µM,–,3.83 µM and 7.61 µM,–,36.4,–,7.55 µM and 5.23 µM,–,3.56 µM and 8.45 µM,–,10.7 µM and 11.6 µM
C=C(CN(C)C)C(=O)c1ccc(Oc2ccccc2)cc1,–,11,–,34.3 µM,–,3.35 µM,–,4.02 µM,–,34.3 µM,–,18.6 µM,–,7.17,–,20.9 µM,–,35.5 µM,–,30.8 µM
COc1ccc2nc(-c3cc4c([nH]c5ccccc54)c(-c4ccc(F)c(F)c4)n3)[nH]c2c1,3.41,16.7,3.74,13 µM,1.88,4.66 µM,4.02,16.9 µM,8.91,42.5 µM,17.8,58.6 µM,3.46,13.1,6.3,24 µM,14.2,29.7 µM,4.62,34.7 µM
C#Cc1cc(CN(CC(=O)OC(C)(C)C)CC(=O)OC(C)(C)C)nc(CN(CC(=O)OC(C)(C)C)CC(=O)OC(C)(C)C)c1,–,> 100,–,> 100 µM,–,24.9 µM,–,28.6 µM,–,7.34 µM,–,> 100 µM,–,14.2,–,37.9 µM,–,43.4 µM,–,26.7 µM
CCOC(=O)NC1CC2CCC1(OC)C=C2C (stereo unspecified),–,> 100,–,> 100 µM,–,> 100 µM,–,> 100 µM,–,> 100 µM,–,> 100 µM,–,> 100,–,> 100 µM,–,> 100 µM,–,> 100 µM
